Reference: US20250099485A1, “COMPOSITIONS FOR PROMOTING HAIR GROWTH” (ESTETRA SRL, priority 2021, published 2025)

Assays:
[1] = system: human hair follicles (HF); assay: Hair follicle organ culture: hair shaft elongation ex vivo; assay type: cell-based; settings: 300 nM, 3 μM, 30 μM, n=4 female donors
Protocol: 12-44 full-length frontotemporal hair follicles (HF) were obtained from four human female donors >50 years old. Donors were caucasian female subjects […], respectively (Donor 1: 12 temporal anagen HFs; Donor 2: 29; Donor 3: 44; Donor 4: 32). After microdissection from skin as described (Edelkamp et al., Methods Mol Biol, 2020, 2154:105-119; and Langan et al., Exp Dermatol, 2015, December; 24(12):903-1), HFs were placed in adequate culture medium and allowed a 24 h rest period to allow them to recover from the trauma of microdissection. Test substance (either vehicle (0.3% EtOH) or E4 at concentrations of 30 μM, 3 μM or 300 nM) was added to the medium at the end of the 24 h. Total culturing time was 5-7 days depending on the studied parameters and the experimental question. The experimental design for the hair follicle organ culture experiment is depicted in FIG. 12. […]
To determine the HF length, each HF was measured from the end of the bulb connective tissue sheath to the end of the distal outer root sheath (ORS), using a digital light microscope at 50× magnification (VHX 900 Keyence Corporation, Osaka, Japan) and the affiliated software (Edelkamp et al., Methods Mol Biol, 2020, 2154:105-119; and Langan et al., Exp Dermatol, 2015, December; 24(12):903-1). […] Elongation is expressed as millimeters of growth and/or as percentage elongation from the baseline measurement.

[2] = system: alkaline phosphatase in dermal papilla (DP); assay: Hair follicle organ culture: alkaline phosphatase activity, DP inductivity; assay type: cell-based, human; settings: all tested concentrations, vs vehicle
Protocol: (§1) 12-44 full-length frontotemporal hair follicles (HF) were obtained from four human female donors >50 years old. Donors were caucasian female subjects […], respectively (Donor 1: 12 temporal anagen HFs; Donor 2: 29; Donor 3: 44; Donor 4: 32). After microdissection from skin as described (Edelkamp et al., Methods Mol Biol, 2020, 2154:105-119; and Langan et al., Exp Dermatol, 2015, December; 24(12):903-1), HFs were placed in adequate culture medium and allowed a 24 h rest period to allow them to recover from the trauma of microdissection. Test substance (either vehicle (0.3% EtOH) or E4 at concentrations of 30 μM, 3 μM or 300 nM) was added to the medium at the end of the 24 h. Total culturing time was 5-7 days depending on the studied parameters and the experimental question. The experimental design for the hair follicle organ culture experiment is depicted in FIG. 12. Longer term culture experiments may be used to analyze the capacity to delay the onset of catagen.
Alkaline phosphatase is an indicator of DP inductivity (Yang, J Dermatol Sci, 2010, January; 57(1):2-11). Alkaline phosphatase in situ activity was measured in the DP.

human monocytes = assay: Immune cell polarization (qPCR NOS2/ARG1), human monocytes; assay type: cell-based; settings: activated human monocytes, qPCR marker
Protocol: Immune cell polarization was evaluated in vitro using markers for M1/TH-1 (NOS2) and M2/TH-2 (ARG1) phenotype with human monocytes and mouse monocytes (BMDM bone marrow derived monocytes).
Human blood was collected under national ethical approval with full informed written patient consent. Freshly isolated human blood was collected in EDTA vacutainer tubes, diluted 1:1 in PBS and gently layered onto histopaque (Merck). Tubes were immediately centrifuged at 100×g for 30 minutes and the whitish buffy layer formed at the histopaque interface aspirated and washed (centrifuged 100×g, 10 minutes) twice with sterile PBS. Untouched classical (CD14++, CD16−) monocytes were isolated from the washed buffy layer cells using the Miltenyi Classical Monocyte Isolation Kit, LS columns and a MidiMACs separator (Miltenyi). Isolated cells were seeded into tissue culture plates and stimulated to differentiate using PMA.
An experiment was conducted to evaluate the anti-inflammatory effects of E4 or vehicle (negative control). qPCR methodology was used to assess the effects of E2 and E4 on immune cell polarization using well validated marker of pro-inflammatory (NOS2 for MI/TH-1 phenotype) and anti-inflammatory (ARG1 for ME/TH-2 phenotype) activity.

[3] = system: primary human dermal fibroblasts; assay: Fibroblast monolayer scratch assay, human; assay type: cell-based; settings: 10^−10 M to 10^−6 M, three female donors, compared with E2
Protocol: Human skin was transferred to the laboratory in holding media (DMEM containing 4% penicillin-streptomycin and Amphotericin B solution) within 30 minutes of collection. Once defatted, the skin was rinsed in HBSS with 4% PSA followed by DPBS without antibiotics, then cut into thin strips and floated on 0.2% Dispase II in DPBS overnight at 4° C., followed by manual separation of the epidermis from the dermis. Primary human epidermal keratinocytes and primary human dermal fibroblasts were then isolated.
Confluent wells of both primary keratinocytes and fibroblasts were subjected to a highly validated scratch wounding procedure (using a 1 mL sterile filter tip). Post-scratching, cells were rinsed with DPBS and cell-specific media containing treatments added to each well. Cells were imaged on a ptychographic live cell imaging platform (Livecyte 2TM, Phasefocus) for 24-48 hours. Automated tracking of individual unlabeled cells will be combined with 3D cell measurements to quantify a range of wound-relevant cell parameters including scratch closure rate.
Dose range finding experiments were conducted with E4 (10^−10M to 10^−6M) and E2 with and without Mitomycin C (MMC, to inhibit proliferation) using vehicle as negative controls. […]

[4] = system: hair matrix keratinocytes; assay: Hair follicle organ culture: hair matrix keratinocytes proliferation and apoptosis (Ki-67/TUNEL); assay type: cell-based, human; settings: vs vehicle
Protocol: as §1
Germinative hair matrix keratinocytes proliferate mostly during anagen. […] Apoptosis of hair matrix keratinocytes is used as an additional indicator of anagen/catagen transition.
Proliferation was assessed by quantification of the percentage of hair matrix keratinocytes in a clearly specified area (germinative hair matrix keratinocytes, below the Auber's line) that were positive for the proliferation marker Ki67 (or another proliferation marker such as BrdU or EdU), whereas apoptosis was assessed using TUNEL (TdT-mediated dUTP-biotin nick-end labelling) immunofluorescence (or another apoptosis marker such as activated caspase-3) in the same keratinocyte population (below the Auber's line) and in the precortical hair matrix keratincoytes (above the Auber's line) (Langan et al., Exp Dermatol 2015) (FIG. 13).

C[C@]12CC[C@@H]3c4ccc(O)cc4CC[C@H]3[C@@H]1[C@@H](O)[C@@H](O)[C@@H]2O [E4, 1,3,5 (10)-estratrien-3,15alpha,16alpha,17beta-tetrol]
hair shaft production [1]: did not modify | alkaline phosphatase activity in DP cells [2]: tendentially increased | immune cell polarization, human monocytes (human monocytes): switch from subtype M1 (pro-inflammatory) to subtype M2 (healing) | in vitro wound closure, human fibroblasts scratch assay [3]: promotes in vitro wound closure to a similar extent as E2 | hair matrix keratinocytes apoptosis (TUNEL) ([4]; 300 nM, 3 μM, 30 μM): without affecting | increased hair matrix keratinocytes proliferation (Ki-67) ([4]; 300 nM): tendentially | increased hair matrix keratinocytes proliferation (Ki-67) ([4]; 3 μM): significantly | increased hair matrix keratinocytes proliferation (Ki-67) ([4]; 30 μM): tendentially
